From ChEMBL document CHEMBL3259629, “Discovery and optimization of piperidyl-1,2,3-triazole ureas as potent, selective, and in vivo-active inhibitors of α/β-hydrolase domain containing 6 (ABHD6)” (J Med Chem, 2013)

Assays:
Conditions in all cases: Neuro2a, 3 nM
[1] = molecular target: T1, S-formylglutathione hydrolase (Mus musculus) (UniProt Q9R0P3)
T1 sequence (whole entry): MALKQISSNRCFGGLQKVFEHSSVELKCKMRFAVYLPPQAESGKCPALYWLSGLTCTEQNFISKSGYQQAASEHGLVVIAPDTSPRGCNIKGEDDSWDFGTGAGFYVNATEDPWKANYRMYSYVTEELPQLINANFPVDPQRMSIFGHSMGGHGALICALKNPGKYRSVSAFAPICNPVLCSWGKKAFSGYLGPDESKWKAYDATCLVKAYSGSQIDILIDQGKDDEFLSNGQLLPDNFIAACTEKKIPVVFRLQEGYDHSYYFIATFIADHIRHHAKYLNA
Description: Inhibition of Esd in mouse Neuro2a cells at 3 nM after 4 hrs by ABPP-SILAC assay

[2] = molecular target: T2, Hormone-sensitive lipase (Mus musculus) (UniProt P54310)
T2 sequence (whole entry): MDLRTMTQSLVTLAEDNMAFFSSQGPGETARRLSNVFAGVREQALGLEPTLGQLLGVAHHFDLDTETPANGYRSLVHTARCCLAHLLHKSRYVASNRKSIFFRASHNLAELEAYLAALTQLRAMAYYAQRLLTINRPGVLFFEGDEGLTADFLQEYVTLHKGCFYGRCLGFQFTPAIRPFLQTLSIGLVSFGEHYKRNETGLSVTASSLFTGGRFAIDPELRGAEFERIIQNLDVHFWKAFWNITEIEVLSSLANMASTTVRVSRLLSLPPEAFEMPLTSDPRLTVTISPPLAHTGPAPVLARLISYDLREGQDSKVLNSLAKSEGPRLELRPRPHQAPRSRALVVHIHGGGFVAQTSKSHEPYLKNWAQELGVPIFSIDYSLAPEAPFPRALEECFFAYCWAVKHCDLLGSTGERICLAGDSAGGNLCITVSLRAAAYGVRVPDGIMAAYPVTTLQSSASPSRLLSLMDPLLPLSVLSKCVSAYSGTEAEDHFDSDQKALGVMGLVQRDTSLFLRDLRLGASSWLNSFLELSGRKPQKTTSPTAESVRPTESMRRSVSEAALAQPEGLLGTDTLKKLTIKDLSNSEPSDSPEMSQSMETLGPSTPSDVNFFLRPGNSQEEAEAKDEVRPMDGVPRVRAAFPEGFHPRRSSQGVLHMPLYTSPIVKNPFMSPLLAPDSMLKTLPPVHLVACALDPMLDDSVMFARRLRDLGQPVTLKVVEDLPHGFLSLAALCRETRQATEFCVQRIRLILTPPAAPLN
Description: Inhibition of Lipe in mouse Neuro2a cells at 3 nM after 4 hrs by ABPP-SILAC assay

[3] = molecular target: T3, Patatin-like phospholipase domain-containing protein 6 (Mus musculus) (UniProt Q3TRM4)
T3 sequence (whole entry): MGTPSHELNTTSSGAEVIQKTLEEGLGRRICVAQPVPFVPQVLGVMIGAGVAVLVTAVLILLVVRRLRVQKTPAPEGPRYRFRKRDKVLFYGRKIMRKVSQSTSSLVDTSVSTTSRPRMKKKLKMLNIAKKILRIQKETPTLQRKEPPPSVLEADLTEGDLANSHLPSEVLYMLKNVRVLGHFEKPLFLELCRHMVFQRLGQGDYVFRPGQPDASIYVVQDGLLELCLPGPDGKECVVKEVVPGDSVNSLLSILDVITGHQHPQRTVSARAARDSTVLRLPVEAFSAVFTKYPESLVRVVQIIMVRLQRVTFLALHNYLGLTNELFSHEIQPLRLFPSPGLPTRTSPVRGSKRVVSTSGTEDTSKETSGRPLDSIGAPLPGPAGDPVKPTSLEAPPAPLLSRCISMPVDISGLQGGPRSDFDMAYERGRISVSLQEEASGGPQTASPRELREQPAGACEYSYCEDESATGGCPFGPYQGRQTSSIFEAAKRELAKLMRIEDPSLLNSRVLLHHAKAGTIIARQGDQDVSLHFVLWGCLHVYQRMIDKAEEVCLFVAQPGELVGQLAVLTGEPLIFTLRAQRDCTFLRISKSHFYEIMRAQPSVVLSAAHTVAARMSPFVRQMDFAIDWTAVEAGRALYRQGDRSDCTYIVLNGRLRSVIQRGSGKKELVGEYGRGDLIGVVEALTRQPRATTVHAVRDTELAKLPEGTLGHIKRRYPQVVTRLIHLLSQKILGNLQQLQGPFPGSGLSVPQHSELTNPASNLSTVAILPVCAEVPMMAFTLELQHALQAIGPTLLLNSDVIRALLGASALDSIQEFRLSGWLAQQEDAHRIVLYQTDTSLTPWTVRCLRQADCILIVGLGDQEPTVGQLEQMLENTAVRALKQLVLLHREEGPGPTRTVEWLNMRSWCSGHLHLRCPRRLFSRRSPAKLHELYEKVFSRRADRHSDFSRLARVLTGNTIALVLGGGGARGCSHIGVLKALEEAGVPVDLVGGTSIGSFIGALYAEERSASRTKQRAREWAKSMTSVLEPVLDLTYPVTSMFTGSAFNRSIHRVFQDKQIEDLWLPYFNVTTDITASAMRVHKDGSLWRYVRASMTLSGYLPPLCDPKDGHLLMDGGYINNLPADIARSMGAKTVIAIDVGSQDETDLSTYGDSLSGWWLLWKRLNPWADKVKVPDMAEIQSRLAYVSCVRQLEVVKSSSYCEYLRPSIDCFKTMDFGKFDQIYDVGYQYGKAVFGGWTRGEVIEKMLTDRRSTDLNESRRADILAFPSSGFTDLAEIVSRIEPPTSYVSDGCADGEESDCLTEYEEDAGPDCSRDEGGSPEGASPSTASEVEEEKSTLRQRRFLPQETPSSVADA
Description: Inhibition of Pnpla6 in mouse Neuro2a cells at 3 nM after 4 hrs by ABPP-SILAC assay

[4] = molecular target: T4, Retinoid-inducible serine carboxypeptidase (Mus musculus) (UniProt Q920A5)
T4 sequence (whole entry): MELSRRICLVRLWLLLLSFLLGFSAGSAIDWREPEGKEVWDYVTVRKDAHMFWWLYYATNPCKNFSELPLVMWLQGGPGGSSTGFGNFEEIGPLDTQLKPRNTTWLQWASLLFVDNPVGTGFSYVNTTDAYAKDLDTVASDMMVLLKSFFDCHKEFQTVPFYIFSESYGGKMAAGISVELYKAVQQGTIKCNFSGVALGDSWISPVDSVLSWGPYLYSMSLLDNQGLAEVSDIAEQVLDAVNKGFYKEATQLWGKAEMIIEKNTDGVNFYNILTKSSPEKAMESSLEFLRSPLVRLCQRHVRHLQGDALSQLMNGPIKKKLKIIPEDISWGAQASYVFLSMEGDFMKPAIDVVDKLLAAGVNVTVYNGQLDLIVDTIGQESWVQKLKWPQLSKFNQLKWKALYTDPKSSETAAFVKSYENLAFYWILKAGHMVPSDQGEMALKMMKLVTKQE
Description: Inhibition of Scpep1 in mouse Neuro2a cells at 3 nM after 4 hrs by ABPP-SILAC assay

Measured: inhibition

O=C(N1CCCCC1c1ccccc1)n1cc(-c2ccc(-c3cccc(CO)c3)cc2)nn1 (racemic)
< 50%: all assays above

O=C(c1cccc(-c2ccc(-c3cn(C(=O)N4CCCCC4c4ccccc4)nn3)cc2)c1)N1CCCCC1 (racemic)
< 50%: all assays above

O=C(O)c1cccc(-c2ccc(-c3cn(C(=O)N4CCCCC4Cc4ccccc4)nn3)cc2)c1 (racemic)
< 50%: all assays above
